Experimental findings from patent publication US20110190307A1, “Assay” (priority 2008, published 2011) are described below.

“Also recorded” adds a separate entry of the source.

In experiment [1] the test system is primary mammalian motor neurons. Description: neuroprotective effect on primary mammalian motor neurons in culture under stress. Format: cell-based. The following applies: 0.5 and 5 μM applied 1 hr before stressors (H2O2 and staurosporin), 24 hours, MAP-2 positive cells counted. How it is done: Neuroprotection is measured as a % of cells counted in each experimental condition to the number of control, untreated cells run at the same time on the same plate. NPA was applied 1 hr before stressors (H2O2 and staurosporin), at 2 concentrations: 0.5 and 5 μM. Stressors were applied for 24 hours, then plates were fixed and stained for MAP-2 and then positive cells counted.

The test system of experiment [2] is motor axons in HB9:GFP embryos. Description: primary screen paradigm: motor axons in HB9:GFP transgenic embryos. The conditions noted are these: 24 hpf HB9:GFP embryos, compound applied at 6 hpf. It is filed as in vivo, zebrafish. How it is done:
(§1) We use two transgenic lines, in which expression of green fluorescent protein (GFP) is controlled by the motor neuron specific promoters HB9 or islet-1 in the spinal cord. In the HB9:GFP line (Flanagan-Steet et al., 2005), primary motor neurons and their ventral axons are labelled at 24 hours post-fertilisation (hpf). Aberrations in the highly stereotypic pattern of primary motor axons are easily detectable in a stereo-microscope (FIG. 8). […] Thus, acceleration or delay of motor neuron differentiation can readily be assessed under a stereo-microscope.
(§2) Different small molecule libraries may be used for screening. […] Primary screen: Compounds are applied to HB9:GFP embryos in 24 well plates at a concentration of 10-25 μM in accordance with other studies (Zon and Peterson, 2005) at 6 hpf (mid-gastrula) and trajectories of motor axons analysed at 24 hpf. […] Missing, stunted, excessively branched or supernumerary motor axons (FIG. 8), which are easily detectable in a fluorescence-equipped stereo-microscope, are classified as hits. Apparently toxic substances will be re-evaluated at lower concentrations. […] The read-out of this screen is whether the rostro-caudal band of late born secondary motor neurons in the ventral spinal cord is complete. […] To do this, 20 embryos per treatment will be dechorionated, anesthetised (tricaine 1:10000) and analysed under a stereomicroscope. […]

For experiment [3], the system named is HB9:GFP+ motor neurons in the lesioned adult spinal cord. Description: adult validation paradigm: motor neuron regeneration after spinal cord lesion. Format: in vivo, zebrafish. The conditions noted are these: 2 weeks post-lesion; for number of newly generated motor neurons in HB9:GFP transgenic animals: within 1.5 mm surrounding the lesion site. How it is done: As described previously (Becker et al., 1997), fish were anesthetized by immersion in 0.033% aminobenzoic acid ethylmethylester (MS222; Sigma, St. Louis, Mo.) in PBS for 5 min. A longitudinal incision was made at the side of the fish to expose the vertebral column. The spinal cord was completely transected under visual control 4 mm caudal to the brainstem-spinal cord junction.
Stereological counts were performed in confocal image stacks of three randomly selected vibratome sections from the region up to 750 μm rostral to the lesion site and three sections from the region up to 750 μm caudal to the lesion site. Cell numbers were then calculated for the entire 1.5 mm surrounding the lesion site.
Different small molecule libraries may be used for screening. It is possible to screen the Spectrum Collection of FDA approved drugs and natural products and other bioactive components (2000 compounds), the Diversity Set of the US National Cancer Institute (1990 compounds), the Tocriscreen library (1120 compounds) and the Prestwick Chemical Library (1120 compounds). Due to some overlap between libraries, we will test approximately 5600 individual compounds. All of these libraries are commercially available. Primary screen: Compounds are applied to HB9:GFP embryos in 24 well plates at a concentration of 10-25 μM in accordance with other studies (Zon and Peterson, 2005) at 6 hpf (mid-gastrula) and trajectories of motor axons analysed at 24 hpf. Analysing 2-3 embryos per compound is sufficient, because the pattern of motor axon outgrowth is highly stereotypic, making this a robust and quick screening tool. No anaesthesia or other manipulations are necessary to observe primary motor axons. Missing, stunted, excessively branched or supernumerary motor axons (FIG. 8), which are easily detectable in a fluorescence-equipped stereo-microscope, are classified as hits. Apparently toxic substances will be re-evaluated at lower concentrations. Specificity of the effect will be established in dose-response experiments for each hit. Secondary screen: To exclude non-specific effects on motor axons due to gross alterations of the embryos occurring during early drug application, and to more directly analyse incipient differentiation of motor neurons, we use the islet-1:GFP fish. Hit compounds from the primary screen are applied at 24 hpf, when early embryogenesis is complete, but before islet-1:GFP+ motor neurons have been born. The read-out of this screen is whether the rostro-caudal band of late born secondary motor neurons in the ventral spinal cord is complete. […] To do this, 20 embryos per treatment will be dechorionated, anesthetised (tricaine 1:10000) and analysed under a stereomicroscope. […]

For experiment [4], the system named is islet-1:GFP+ motor neurons in the ventral spinal cord. Description: secondary screen paradigm: motor neuron differentiation in islet-1:GFP transgenic embryos. It is filed as in vivo, zebrafish. How it is done:
as §1, §2

In the case of `CCCN1CCc2cccc3c2[C@H]1Cc1ccc(O)c(O)c1-3.Cl` [NPA, R(−)-Propylnorapomorphine], in experiment [1], the “neuroprotection: number of neurons surviving stress conditions (% of untreated control cells)” value is “significantly increases the number of mammalian neurons surviving stress conditions”.

For `CC1=C2C[C@H]3[C@@H](CC=C4C[C@@H](O)CC[C@@]43C)[C@@H]2CC[C@]12O[C@@H]1C[C@H](C)CN[C@H]1[C@H]2C` [cyclopamine], the “absence of motor axons” value in experiment [2] was “complete”. In experiment [3] (compared to tomatidine-injected animals), the “reduction in the number of newly generated motor neurons” value is recorded as 50%. Moreover, in experiment [3] (intraperitoneal injection), the “number of newly generated motor neurons in HB9:GFP transgenic animals” value was determined as 377±45.7 cells. In addition, the “embryos with a complete band of differentiated motor neurons” value in experiment [4] (72 hpf, controls 82%, p<0.00001) stood at 11%. Further, the “effect on motor neuron differentiation (in words)” value in experiment [4] (islet-1:GFP embryos, compound applied at 24 hpf, read at 48 hpf and 72 hpf) was “blocks their differentiation; also recorded: retarded motor neuron differentiation”.

`C[C@H]1CC[C@]2(NC1)O[C@H]1C[C@H]3[C@@H]4CC[C@H]5C[C@@H](O)CC[C@]5(C)[C@H]4CC[C@]3(C)[C@H]1[C@@H]2C` [tomatidine]: the “number of large motor neurons” value in experiment [3] (intraperitoneal injection, p=0.0008) came out at 20±4.2. The “number of newly generated motor neurons in HB9:GFP transgenic animals” value in experiment [3] (intraperitoneal injection) was 747±42.2 cells.
